Measurements reported in patent publication US20030069194A1, “Inhibition of viral replication by targeting RNA-DNA complexes” (priority 2001, published 2003).
Values joined by “and” are separate entries in the source; they are usually repeats but may differ in a detail not shown here. Identical values can stand only once. Counter-ions that a name gives are not always drawn.

How the values were obtained:
Format in all cases: binding, HIV-1
18C-18R duplex [1] = assay: Isothermal titration calorimetry (ITC), 18C-18R duplex; details: for ΔHb (binding enthalpy): 18C-18R duplex, ITC at 25° C.
Procedure: Isothermal calorimetric measurements were performed at 25° C. on a MicroCal VP-ITC (MicroCal, Inc., Northampton, Mass.). In a typical experiment, 5 μl aliquots of 500 μM aminoglycoside were injected from a 250 μl rotating (430 RPM) syringe into an isothermal sample chamber containing 1.31 mL of either a 18C-18R solution that was 10 μM in duplex or a 18C-18D solution that was 15 μM in duplex. Each experiment of this type was accompanied by the corresponding control experiment in which 5 μL aliquots of 500 μM drug were injected into a solution of buffer alone. The duration of each injection was 5 seconds and the delay between injections was 240 seconds. The initial delay prior to the first injection was 60 seconds. Each injection generated a heat burst curve (μcal/sec vs. sec). The area under each curve was determined by integration [using the Origin version 5.0 software (MicroCal, Inc., Northampton, Mass.)] to obtain a measure of the heat associated with that injection. The heat associated with each drug-buffer injection was subtracted from the corresponding heat associated with each drug-duplex injection to yield the heat of drug binding for that injection. The calorimeter was calibrated both electronically and chemically. Pilch, D. S., Kirolos, M. A., Liu, X., Plum, G. E. & Breslauer, K. J. Berenil [1,3-bis-(4′-amidinophenyl)triazene] binding to DNA duplexes and to a RNA duplex: Evidence for both intercalative and minor groove binding properties, Biochemistry 34, 9962-9976 (1995). All duplex solutions were preheated for 5 minutes at 85° C. and then cooled to room temperature prior to their use in the ITC experiments. The buffer solutions for the ITC experiments contained 10 mM PIPES (pH 6.0) and 5 mM MgCl2.
Table 1 summarizes the apparent association constants at 25° C. that were calculated using equations (1)-(3) for neomycin and paromomycin binding to the 18C-18R and 18C-18D duplexes. The drug binding enthalpies (ΔHb) required for extrapolation of the binding constants at Tm to common reference temperature of 25° C. using equation (3) were determined using isothermal titration calorinietry (ITC). […] Each of the heat burst curves in FIG. 4 corresponds to a single drug injection, with the seven injections resulting in a final drug to duplex ratio (rdup) of either 0.83 (when 18C-18D served as the target duplex) or 1.25 (when 18C-18R served as the target duplex). The areas under these heat burst curves were determined by integration to yield the associated injection heats. For each titration, the seven injection heats were similar in magnitude, an observation consistent with all of the injected drug being bound by the host duplex. These injection heats were corrected by subtraction of the corresponding dilution heats derived from the injection of identical amounts of drug into buffer alone. The resulting corrected injection heats then were divided by the total concentration of injected drug and averaged to yield the ΔHb values listed in Table 1.

18C-18R duplex [2] = assay: UV melting (thermal denaturation) and ΔTm analysis, 18C-18R duplex; details: for Ka (ΔTm-derived association constant): extrapolated to 25° C.; for greater affinity for the 18C-18R duplex than for the 18C-18D duplex: 18C-18R versus 18C-18D; for enhancement of thermal stability of the duplex (ΔTm): 18C-18R, drug to duplex ratio (rdup) 3.0, FIG. 3a
Procedure: (§1) All UV absorbance experiments were conducted on an AVIV Model 14DS Spectrophotometer (Aviv Associates; Lakewood, N.J.) equipped with a thermoelectrically controlled cell holder. A quartz cell with a 1 cm pathlength was used for all the absorbance studies. Absorbance versus temperature profiles were measured at 274 nm with a 6 sec averaging time. The temperature was raised in 0.5° C. increments, and the samples were allowed to equilibrate for 1 min at each temperature setting. In these thermal denaturation studies, 18C-18R and 18C-18D solutions were […] in duplex and contained aminoglycoside at concentrations ranging from 0 to 12 μM. The duplex solutions were preheated for 5 min at 85° C. and then cooled to room temperature prior to addition of the drug. The buffer solutions for the UV melting experiments contained 10 mM PIPES (pH 6.0) and 5 mM MgCl2. For each optically detected transition, the melting temperature (Tm) was determined. Marky, L. A. & Breslauer, K. J. Calculating thermodynamic data for transitions of any molecularity from equilibrium melting curves, Biopolymers 26, 1601-1620 (1987).
(§2) The ΔTm method described below was used to derive aminoglycoside-duplex association constants (Ka). Measured aminoglycoside-induced changes in the thermal stability of the host duplexes (FIG. 3) were used to estimate the apparent drug-duplex association constants at Tm (KTm) from the following expression (Crothers, D. M. Statistical thermodynamics of nucleic acid melting transitions with coupled binding equilibria, Biopolymers 10, 2147-2160 (1971)): [formula]
(§3) In this expression, TmO and Tm are the melting temperatures of the drug-free and drug-bound duplex, respectively, n is the number of drug molecules bound per duplex, ΔHdup is the enthalpy change for the melting of the duplex in the absence of bound drug, and L is the free drug concentration at Tm (which can be estimated by one half the total drug concentration). Values of ΔHdup for the 18C-18R and 18C-18D duplexes were determined from the shapes of their UV melting profiles using the following relationship (Marky, L. A. & Breslauer, K. J. Calculating thermodynamic data for transitions of any molecularity from equilibrium melting curves, Biopolymers 26, 1601-1620 (1987)): [formula]
(§4) where α is the fraction of single strand. This calculation yielded ΔHdup values of 157.8 kcal/mol for the 18C-18R duplex and 130.3 kcal/mol for the 18C-18D duplex. For meaningful comparisons, the calculated apparent binding constants at Tm should be extrapolated to a common reference temperature using the standard relationship: [formula]
(§5) where ΔHb is the enthalpy of drug binding.

18C-18D duplex = assay: UV melting (thermal denaturation) and ΔTm analysis, 18C-18D duplex; details: for Ka (ΔTm-derived association constant): extrapolated to 25° C.; for enhancement of thermal stability of the duplex (ΔTm): 18C-18D, drug to duplex ratio (rdup) 3.0, FIG. 3b
Procedure: as §1, §2, §3, §4, §5

Compound	ΔHb (binding enthalpy) (18C-18R duplex [1]) [kcal/mol]	ΔHb (binding enthalpy) (18C-18R duplex [1]; listed as Paromomycin) [kcal/mol]	Ka (ΔTm-derived association constant) (18C-18R duplex [2]; 18C-18R duplex)	greater affinity for the 18C-18R duplex than for the 18C-18D duplex (18C-18R duplex [2]) [fold]	enhancement of thermal stability of the duplex (ΔTm) (18C-18R duplex [2]) [°C]	Ka (ΔTm-derived association constant) (18C-18D duplex; 18C-18D duplex)	enhancement of thermal stability of the duplex (ΔTm) (18C-18D duplex) [°C]	ΔHb (binding enthalpy) (18C-18R duplex [1]; listed as Neomycin, trisulfate trihydrate) [kcal/mol]	ΔHb (binding enthalpy) (18C-18R duplex [1]; trisulfate trihydrate) [kcal/mol]	binding stoichiometry (18C-18R duplex [1]; ITC, 18C-18R)	difference in affinity, neomycin greater than paromomycin (18C-18R duplex [2]; 18C-18R duplex) [fold]	greater affinity for the 18C-18R duplex than for the 18C-18D duplex (18C-18R duplex [2]; trisulfate trihydrate)	difference in affinity, neomycin greater than paromomycin (18C-18D duplex; 18C-18D duplex) [fold]
NC[C@@H]1O[C@H](O[C@H]2[C@@H](O)[C@H](O[C@@H]3[C@@H](O)[C@H](N)C[C@H](N)[C@H]3O[C@H]3O[C@H](CO)[C@@H](O)[C@H](O)[C@H]3N)O[C@@H]2CO)[C@H](N)[C@@H](O)[C@@H]1O [paromomycin, paromomycin sulfate]	-4.5	-4.5 ± 0.1	(4.3 ± 1.6) × 10^5 M^−1	2	1.4	(1.9 ± 0.8) × 10^5 M^−1	1.1	–	–	–	–	–	–
Neomycin trisulfate trihydrate	–	–	(8.6 ± 1.5) × 10^6 M^−1	–	4.8	(1.7 ± 0.3) × 10^6 M^−1	4.1	-8.8 ± 0.1	-8.8	approximately five	20	≈ 5 fold and 5 fold	9
